Source: US8309718B2, “4-pyrazolyl-N-arylpyrimidin-2-amines and 4-pyrazolyl-N-heteroarylpyrimidin-2-amines as janus kinase inhibitors” (Incyte Corporation, priority 2007, dated 2012)

These compounds were tested against T1, human JAK2 (Homo sapiens, UniProt O60674) (assay: In vitro JAK kinase assay (HTRF, phosphorylation of biotinylated peptide)). Details: catalytic domain a.a. 828-1132, 30 μM ATP, 500 nM peptide, room temperature 1 hr; read-out: JAK-2 IC50.
T1 construct: JAK2 (a.a. 828-1132); His tag (N); made in house; host or cells: insect cells (baculovirus)
Assay type: biochemical
In short: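 IC50 from HTRF detection (Eu-Py20 antibody, SA-APC) of biotinylated-peptide phosphorylation (500 nM), run 1 h at RT. Enzyme: N-His human JAK2 kinase domain a.a. 828-1132 from insect cells; ATP 30 μM; buffer 50 mM Tris pH 7.8 with NaCl, DTT, BSA.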

T1 sequence (O60674 828-1132): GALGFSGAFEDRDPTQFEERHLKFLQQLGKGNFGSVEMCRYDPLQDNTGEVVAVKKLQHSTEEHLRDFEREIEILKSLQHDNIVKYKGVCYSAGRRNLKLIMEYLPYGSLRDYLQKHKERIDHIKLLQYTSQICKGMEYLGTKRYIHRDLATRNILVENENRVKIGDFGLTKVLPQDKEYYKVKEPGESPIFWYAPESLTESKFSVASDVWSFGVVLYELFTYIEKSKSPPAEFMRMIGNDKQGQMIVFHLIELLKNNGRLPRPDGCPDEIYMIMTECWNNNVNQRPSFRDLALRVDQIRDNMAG

IC50, < 100 nM:
COc1cnc(Nc2ccc(N3CCOCC3)cc2)nc1-c1cnn(C(CC#N)C2CCCC2)c1 (racemic) [Example 101, 3-cyclopentyl-3-(4-(5-methoxy-2-(4-morpholinophenylamino)pyrimidin-4-yl)-1H-pyrazol-1-yl)propanenitrile]
COC1CCN(C(=O)c2ccc(Nc3nccc(-c4cnn(C(CC#N)C5CC5)c4)n3)cc2)CC1 (racemic) [Example 263, 3-cyclopropyl-3-(4-(2-(4-(4-methoxypiperidine-1-carbonyl)phenylamino)pyrimidin-4-yl)-1H-pyrazol-1-yl)propanenitrile]
Cc1cnc(Nc2ccc(-n3cccn3)cc2)nc1-c1cnn(C(CC#N)CC2CCN(C(=O)c3ccc(F)cc3F)CC2)c1 (racemic) [Example 64, 3-(4-(2-(4-(1H-pyrazol-1-yl)phenylamino)-5-methylpyrimidin-4-yl)-1H-pyrazol-1-yl)-4-(1-(2,4-difluorobenzoyl)piperidin-4-yl)butanenitrile]
N#CCC(C1CC1)n1cc(-c2ccnc(Nc3ccc(C(=O)N4CCC(O)CC4)cc3)n2)cn1 (racemic) [Example 251, 3-cyclopropyl-3-(4-(2-(4-(4-hydroxypiperidine-1-carbonyl)phenylamino)pyrimidin-4-yl)-1H-pyrazol-1-yl)propanenitrile]
CC(=O)Nc1ccc(Nc2ncc(C)c(-c3cnn(C(CC#N)CC4CCN(C(=O)c5ccc(F)cc5F)CC4)c3)n2)cc1 (racemic) [Example 69, N-(4-(4-(1-(1-cyano-3-(1-(2,4-difluorobenzoyl)piperidin-4-yl)propan-2-yl)-1H-pyrazol-4-yl)-5-methylpyrimidin-2-ylamino)phenyl)acetamide]
N#CCC(C1CCCC1)n1cc(-c2ccnc(Nc3ccc(NC(=O)c4ccccc4)cc3)n2)cn1 (racemic) [Example 183, N-(4-(4-(1-(2-cyano-1-cyclopentylethyl)-1H-pyrazol-4-yl)pyrimidin-2-ylamino)phenyl)benzamide]
CCS(=O)(=O)N1CCC(CC(CC#N)n2cc(-c3ccnc(Nc4ccc(-n5cccn5)cc4)n3)cn2)CC1 (racemic) [Example 43, 3-(4-(2-(4-(1H-pyrazol-1-yl)phenylamino)pyrimidin-4-yl)-1H-pyrazol-1-yl)-4-(1-(ethylsulfonyl)piperidin-4-yl)butanenitrile]
CC(=O)N[C@@H]1CCN(C(=O)c2ccc(Nc3nccc(-c4cnn(C(CC#N)C5CC5)c4)n3)cc2)C1 (mixture of isomers) [Example 268, N-((3R)-1-(4-(4-(1-(2-cyano-1-cyclopropylethyl)-1H-pyrazol-4-yl)pyrimidin-2-ylamino)benzoyl)pyrrolidin-3-yl)acetamide]
CN1CCN(C(=O)c2ccc(Nc3nccc(-c4cnn(C(CC#N)C5CCCC5)c4)n3)cc2)CC1 (racemic) [Example 120, 3-cyclopentyl-3-(4-(2-(4-(4-methylpiperazine-1-carbonyl)phenylamino)pyrimidin-4-yl)-1H-pyrazol-1-yl)propanenitrile]
CCS(=O)(=O)N1CC(CC#N)(n2cc(-c3ccnc(Nc4ccc(C(=O)N5CC[C@@H](O)C5)cc4)n3)cn2)C1 [Example 278, (R)-2-(1-(ethylsulfonyl)-3-(4-(2-(4-(3-hydroxypyrrolidine-1-carbonyl)phenylamino)pyrimidin-4-yl)-1H-pyrazol-1-yl)azetidin-3-yl)acetonitrile]
CCS(=O)(=O)N1CCC(CC(CC#N)n2cc(-c3ccnc(Nc4ccccc4)n3)cn2)CC1 (racemic) [Example 44, 4-(1-(ethylsulfonyl)piperidin-4-yl)-3-(4-(2-(phenylamino)pyrimidin-4-yl)-1H-pyrazol-1-yl)butanenitrile]
COc1cnc(Nc2ccc(N3CCCC3=O)cc2)nc1-c1cnn(C(CC#N)C2CCCC2)c1 (racemic) [Example 130, 3-cyclopentyl-3-(4-(5-methoxy-2-(4-(2-oxopyrrolidin-1-yl)phenylamino)pyrimidin-4-yl)-1H-pyrazol-1-yl)propanenitrile]
Cc1cc(OC2CCC(CC#N)(n3cc(-c4ccnc(Nc5cccc(-c6cnco6)c5)n4)cn3)CC2)no1 (single isomer, unassigned) [Example 247, 2-(4-(5-methylisoxazol-3-yloxy)-1-(4-(2-(3-(oxazol-5-yl)phenylamino)pyrimidin-4-yl)-1H-pyrazol-1-yl)cyclohexyl)acetonitrile]
COc1ccc(Nc2nccc(-c3cnn(C(CC#N)C4CCCC4)c3)n2)cc1 (racemic) [Example 38, 3-cyclopentyl-3-(4-(2-(4-methoxyphenylamino)pyrimidin-4-yl)-1H-pyrazol-1-yl)propanenitrile]
N#CCC(C1CCCC1)n1cc(-c2ccnc(Nc3cccc(-c4cnco4)c3)n2)cn1 (racemic) [Example 37, 3-cyclopentyl-3-(4-(2-(3-(oxazol-5-yl)phenylamino)pyrimidin-4-yl)-1H-pyrazol-1-yl)propanenitrile]
CS(=O)(=O)N1CCN(c2ccc(Nc3nccc(-c4cnn(C(CC#N)C5CCCC5)c4)n3)cc2)CC1 (racemic) [Example 54, 3-cyclopentyl-3-(4-(2-(4-(4-(methylsulfonyl)piperazin-1-yl)phenylamino)pyrimidin-4-yl)-1H-pyrazol-1-yl)propanenitrile]
CNC(=O)c1ccc(Nc2ncc(C)c(-c3cnn(C(CC#N)C4CCCC4)c3)n2)cc1 (racemic) [Example 86, 4-(4-(1-(2-cyano-1-cyclopentylethyl)-1H-pyrazol-4-yl)-5-methylpyrimidin-2-ylamino)-N-methylbenzamide]
N#CCC(C1CCCC1)n1cc(-c2ccnc(Nc3ccc(C(=O)N4CCNC(=O)C4)cc3)n2)cn1 (racemic) [Example 123, 3-cyclopentyl-3-(4-(2-(4-(3-oxopiperazine-1-carbonyl)phenylamino)pyrimidin-4-yl)-1H-pyrazol-1-yl)propanenitrile]
CC1(C)NC(=O)O[C@]12CCN(C(=O)c1ccc(Nc3nccc(-c4cnn(C(CC#N)C5CCCC5)c4)n3)cc1)C2 (single isomer, unassigned) [Example 219, 3-cyclopentyl-3-(4-(2-(4-((S*)-4,4-dimethyl-2-oxo-1-oxa-3,7-diazaspiro[4.4]nonane-7-carbonyl)phenylamino)pyrimidin-4-yl)-1H-pyrazol-1-yl)propanenitrile]
N#CCC(C1CCOCC1)n1cc(-c2ccnc(Nc3ccc(C(=O)N4CCC(C#N)CC4)cc3)n2)cn1 (racemic) [Example 314, 1-{4-[(4-{1-[2-cyano-1-(tetrahydro-2H-pyran-4-yl)ethyl]-1H-pyrazol-4-yl}pyrimidin-2-yl)amino]benzoyl}piperidine-4-carbonitrile]
COc1cnc(Nc2cccc(C(=O)NCc3cc(C)on3)c2)nc1-c1cnn(C(CC#N)C2CC2)c1 (racemic) [Example 333, 3-({4-[1-(2-cyano-1-cyclopropylethyl)-1H-pyrazol-4-yl]-5-methoxypyrimidin-2-yl}amino)-N-[(5-methylisoxazol-3-yl)methyl]benzamide]
Cc1cnc(Nc2ccc(C(=O)N(C)C)cc2)nc1-c1cnn(C(CC#N)C2CCCC2)c1 (racemic) [Example 77, 4-(4-(1-(2-cyano-1-cyclopentylethyl)-1H-pyrazol-4-yl)-5-methylpyrimidin-2-ylamino)-N,N-dimethylbenzamide]
N#CCC(C1CCCC1)n1cc(-c2ccnc(Nc3ccc(NC(=O)CNCC4CCOCC4)cc3)n2)cn1 (racemic) [Example 208, N-(4-(4-(1-(2-cyano-1-cyclopentylethyl)-1H-pyrazol-4-yl)pyrimidin-2-ylamino)phenyl)-2-((tetrahydro-2H-pyran-4-yl)methylamino)acetamide]
N#CCC(CC1CCN(C(=O)c2ccc(F)cc2F)CC1)n1cc(-c2ccnc(Nc3ccc(Oc4ccccc4)cc3)n2)cn1 (racemic) [Example 11, 4-(1-(2,4-difluorobenzoyl)piperidin-4-yl)-3-(4-(2-(4-phenoxyphenylamino)pyrimidin-4-yl)-1H-pyrazol-1-yl)butanenitrile]
N#CCC(C1CCCC1)n1cc(-c2ccnc(Nc3ccc(NS(=O)(=O)c4ccc(-c5ccccn5)s4)cc3)n2)cn1 (racemic) [Example 195, N-(4-(4-(1-(2-cyano-1-cyclopentylethyl)-1H-pyrazol-4-yl)pyrimidin-2-ylamino)phenyl)-5-(pyridin-2-yl)thiophene-2-sulfonamide]
CC(=O)Nc1ccc(Nc2nccc(-c3cnn(C(CC#N)CC4CCN(C(=O)c5ccc(F)cc5F)CC4)c3)n2)cc1 (racemic) [Example 60, N-(4-(4-(1-(1-cyano-3-(1-(2,4-difluorobenzoyl)piperidin-4-yl)propan-2-yl)-1H-pyrazol-4-yl)pyrimidin-2-ylamino)phenyl)acetamide]
N#CCC(C1CCCC1)n1cc(-c2ccnc(Nc3ccc(C(=O)N4CCCC4)cc3)n2)cn1 (racemic) [Example 122, 3-cyclopentyl-3-(4-(2-(4-(pyrrolidine-1-carbonyl)phenylamino)pyrimidin-4-yl)-1H-pyrazol-1-yl)propanenitrile]
COc1cnc(Nc2ccc(C(=O)NC3CCOCC3)cc2)nc1-c1cnn(C(CC#N)C2CCCC2)c1 (racemic) [Example 305, 4-(4-(1-(2-cyano-1-cyclopentylethyl)-1H-pyrazol-4-yl)-5-methoxypyrimidin-2-ylamino)-N-(tetrahydro-2H-pyran-4-yl)benzamide]
